Experimental data reported in patent US20190327974A1, “SYNERGISTS FOR IMPROVED PESTICIDES” (priority 2017, published 2019).
Read-outs that look alike come from different tables or passages of the source.

Key:
293T = experiment: Cell toxicity panel, viability (luminescence); type: cell-based; conditions: Homo sapiens, HEK-293T; Readout: Luminescence; read-out: IC50 Viability Cells, Cell line: 293T
Description: (§1) To further establish the safety and cell toxicity of compounds according to this invention, their IC50 in killing a broad panel of human cell lines (including both cancerous and non-cancerous) cell lines was determined, and their cell toxicity was tested.

HCT116 = experiment: Cell toxicity panel, viability (luminescence); type: cell-based, human; conditions: Readout: Luminescence, read-out: IC50 Viability Cells, Cell line: HCT116
Description: as §1

HT29 = experiment: Cell toxicity panel, viability (luminescence); type: cell-based, human; conditions: Readout: Luminescence, read-out: IC50 Viability Cells, Cell line: HT29
Description: as §1

Hela = experiment: Cell toxicity panel, viability (luminescence); type: cell-based, human; conditions: Readout: Luminescence, read-out: IC50 Viability Cells, Cell line: Hela
Description: as §1

Colo205 = experiment: Cell toxicity panel, viability (luminescence); type: cell-based, human; conditions: Readout: Luminescence, read-out: IC50 Viability Cells, Cell line: Colo205
Description: as §1

H23 = experiment: Cell toxicity panel, viability (luminescence); type: cell-based, human; conditions: Readout: Luminescence, read-out: IC50 Viability Cells, Cell line: H23
Description: as §1

HB-2 cells = experiment: Cellular toxicity, Cell Titer Glo; type: cell-based, human; conditions: for IC50: Homo sapiens, 48 h incubation, Cell Titer Glo, read-out: Viability IC50 HB-2; for toxicity to HB-2 cells (in words): 48 h, up to 100 μM
Description: (§2) A seven-point, two-fold dose response series, with a 100 uM as the upper limit and a DMSO-only control point was generated using an Echo 550 liquid handler (Labcyte Inc.) in 384-well plates. Subsequently, the human breast cell lines MDA-MB-231 (tumorigenic) and HB2 (non-tumorigenic) were seeded (1000 cells/well) using a multi-drop Combi (Thermo Fisher Scientific) on top of the compounds. Plates were then incubated at 37° C. and 5% CO2 for 48 hours upon which cell viability was assessed by adding CellTiter-Glo® (Promega) to the reaction. The luminescence signal was measured on a Pherastar FS multi-mode plate reader (BMG Labtech).

MDA-MB-231 cells = experiment: Cellular toxicity, Cell Titer Glo; type: cell-based, human; conditions: for IC50: Homo sapiens, MDA-MB-231, 48 h incubation, Cell Titer Glo, read-out: Viability IC50 MDA-MB-231; for toxicity to MDA-MB-231 cells (in words): 48 h, up to 100 μM
Description: as §2

[1] = target: T1, Electrophorus electricus AChE (Electrophorus electricus, UniProt O42275); experiment: AChE selectivity (Ellman, acetylthiocholine); type: biochemical; conditions: for Ki: tested to solubility limit, read-out: Ki Ee AChE
T1 construct: purchased Sigma Type V-S
T1 sequence (O42275 24-633): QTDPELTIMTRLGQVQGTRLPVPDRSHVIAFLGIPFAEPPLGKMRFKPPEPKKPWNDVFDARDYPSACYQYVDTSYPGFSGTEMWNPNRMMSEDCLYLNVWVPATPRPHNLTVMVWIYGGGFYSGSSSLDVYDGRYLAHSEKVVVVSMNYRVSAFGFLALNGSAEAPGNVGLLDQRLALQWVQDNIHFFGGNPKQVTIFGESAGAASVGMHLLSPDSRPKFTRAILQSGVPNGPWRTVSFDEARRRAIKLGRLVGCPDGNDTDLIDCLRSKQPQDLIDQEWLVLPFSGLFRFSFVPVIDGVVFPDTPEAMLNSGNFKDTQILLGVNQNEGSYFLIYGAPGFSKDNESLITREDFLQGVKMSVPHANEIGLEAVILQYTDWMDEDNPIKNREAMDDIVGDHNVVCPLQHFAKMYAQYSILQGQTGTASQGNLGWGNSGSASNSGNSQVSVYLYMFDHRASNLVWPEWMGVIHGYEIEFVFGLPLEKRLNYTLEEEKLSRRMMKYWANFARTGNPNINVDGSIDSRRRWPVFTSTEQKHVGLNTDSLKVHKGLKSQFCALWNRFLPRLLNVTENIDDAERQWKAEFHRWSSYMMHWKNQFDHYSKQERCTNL
Description: Initially, the KM for AChE with the substrate acetylthiocholine was determined by monitoring thiocholine production with 5,5′-dithiobis(2-nitrobenzoic acid) (DTNB) at 412 nm. Acetylthiocholine was prepared in assay buffer (100 mM NaH2PO4 pH 7.4) to 10 mM and serially diluted 1-in-2 to achieve concentrations from 10 mM to 0.08 mM while AChE was prepared in 20 mM NaH2PO4 pH 7.0 supplemented with 4 mg/ml BSA to 0.4 nM. […] The reaction was initiated by the addition of 20 μl AChE (40 pM final concentration). Product formation was monitored for six minutes at room temperature and the initial rates of thioester hydrolysis were determined by linear regression using GraphPad Prism. The Michalis constant was determined as before (FIG. 10).
AChE inhibition was determined by assaying the initial rate of acetylthiocholine hydrolysis in the presence of either neat DMSO or the boronic acid compounds in DMSO. […] Reactions were prepared by pipetting 178 μl assay buffer supplemented with acetylthiocholine (to a final concentration of 100 μM) and DTBN (to a final concentration of 300 μM) into wells of a 96-well plate. […] The reaction was initiated by the addition of 20 μl enzyme (final concentration 40 pM). Product formation was monitored for six minutes at room temperature and the initial rates of thioester hydrolysis were determined by linear regression. IC50 and Ki values were determined as described previously (FIG. 9).

[2] = tested on: Lucilia cuprina larvae, laboratory drug-susceptible strain LS; experiment: Lucilia cuprina larval bioassay (pupation rate), laboratory strain; type: in vivo; conditions: for synergism with diazinon (in words): susceptible strain
Description: Inhibitor efficacy was determined by treating larvae with diazinon over a range of concentrations, in the presence or absence of the compounds at constant concentrations, and comparing pupation rates.
Two strains of L. cuprina were used: 1) a laboratory reference drug-susceptible strain, LS, derived from collections in the Australian Capital Territory over 40 years ago, with no history of exposure to insecticides; and 2) a field-collected strain, Tara, resistant to diazinon and diflubenzuron (Levot, G. W. & Sales, N. New high level resistance to diflubenzuron detected in the Australian sheep blowfly, Lucilia cuprina (Wiedemann) (Diptera: Calliphoridae). Gen. Appl. Entomol. 31, 43-46 (2002)). The LcαE7 gene was sequenced in each of the strains. Briefly, genomic DNA was prepared from 20 adult female flies from each strain using the DNeasy Blood and Tissue kit (Qiagen). PCR was performed with primers specific to the LcαE7 gene, and the product was cloned into a pGEM-T EASY vector (Promega). Eight clones of the susceptible strain and 10 clones of the resistant strain were sequenced using M13 forward and reverse primers.
Each experiment utilized 50 larvae at each diazinon/malathion concentration. Experiments were replicated three times for diazinon, and twice for malathion. The insecticidal effects were defined by measuring the pupation rate. […] Compounds were also without diazinon or malathion at 1 mg per assay.

Kallikrein11 = target: T2, Kallikrein11 (Homo sapiens, UniProt Q9UBX7); experiment: Protease selectivity panel; type: biochemical; conditions: 100 μM compound, n = 2
T2 construct: purchased R&D Systems
T2 sequence (Q9UBX7 54-282): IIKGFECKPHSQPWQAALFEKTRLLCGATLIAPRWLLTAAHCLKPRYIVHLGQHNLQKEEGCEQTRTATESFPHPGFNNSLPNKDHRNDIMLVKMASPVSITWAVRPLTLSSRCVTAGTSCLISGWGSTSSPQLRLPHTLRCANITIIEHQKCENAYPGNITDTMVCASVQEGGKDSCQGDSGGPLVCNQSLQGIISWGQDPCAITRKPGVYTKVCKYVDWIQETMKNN
Description: (§3) Test compounds were dissolved in 100% DMSO to make 10 mM stock. Final compound concentration in assay is […]. Compounds were tested in duplicate wells at single concentration and the final concentration of DMSO in all assays was kept at 1%. Five reference compounds, AEBSF, Carfilzomib, Granzyme B Inhibitor II, Dec-RVKR-CMK, and Teneligliptin hydrobromide, were tested in an identical manner with 8 concentration points at 5× dilutions.

PSMB8 = target: T3, PSMB8 (Homo sapiens, UniProt P28062); experiment: Protease selectivity panel; type: biochemical; conditions: 100 μM compound, n = 2
T3 construct: purchased BOSTON-BIOCHEM
Description: as §3

| SMILES | IC50 (293T) [µM] | IC50 (HCT116; Homo sapiens, HCT-116) [µM] | IC50 (HT29; Homo sapiens, HT-29) [µM] | IC50 (Hela; Homo sapiens, HeLa) [µM] | IC50 (Colo205; Homo sapiens, COLO 205) [µM] | IC50 (H23; Homo sapiens, NCI-H23) [µM] | IC50 (HB-2 cells) [µM] | IC50 (MDA-MB-231 cells) [µM] | Ki [1] [µM] | synergism with diazinon (in words) [2] | toxicity to HB-2 cells (in words) (HB-2 cells) | inhibition at 100 µM (Kallikrein11) [%] | inhibition at 100 µM (PSMB8) [%] | other results |
| --- | --- | --- | --- | --- | --- | --- | --- | --- | --- | --- | --- | --- | --- | --- |
| Cc1ccc(B(O)O)cc1Br [Compound 1] | > 99.8 | > 99.8 | > 99.8 | 37.9 | > 99.8 | > 99.8 | > 100 | > 100 | > 1000 |  |  |  |  |  |
| Cc1ccc(B(O)O)cc1OCc1ccccc1 [Compound 2] | 42.9 | 62.8 | 34.1 | 4 | 91.5 | > 99.8 | 20.5 | > 100 | > 300 | No synergism was observed | low toxicity |  |  |  |
| OB(O)c1cc(Br)cc(N2CCOCC2)c1 [Compound 3.1] |  |  |  |  |  |  |  |  |  |  |  |  |  | IC50 (HCT116): > 99.8 µM; IC50 (HT29): > 99.8 µM; IC50 (Hela): > 99.8 µM; IC50 (Colo205): > 99.8 µM; IC50 (H23): > 99.8 µM; reduction of diazinon EC50 compared to a diazinon only control ([2]; susceptible laboratory strain): 5.7 fold |
| OB(O)c1cc(Br)cc(OCc2ccccc2)c1 [Compound 3.9] | > 99.8 | > 99.8 | 72.8 | 2.1 | > 99.8 | 99.3 |  |  |  | synergism was observed | do not exhibit any cellular toxicity | -148 | 52 | toxicity to MDA-MB-231 cells (in words) (MDA-MB-231 cells): do not exhibit any cellular toxicity |
| OB(O)c1cc(Br)cc(Oc2ccccc2)c1 [Compound 3.10, 3-Bromo-5-phenoxyfenylboronic acid] |  |  |  |  |  |  |  |  |  | synergism was observed | do not exhibit any cellular toxicity | -43 | 49 | reduction of malathion EC50 compared to a malathion only control ([2]; laboratory strain): 16 fold; toxicity to MDA-MB-231 cells (in words) (MDA-MB-231 cells): do not exhibit any cellular toxicity |
| OB(O)c1cc(Br)cc(N2CCCC2)c1 [Compound 3] | > 99.8 | > 99.8 | > 99.8 | 8.1 | > 99.8 | > 99.8 | > 100 | > 100 | 270 | synergism was observed |  | -71 | 19 | inhibition of Electrophorus electricus acetylcholinesterase ([1]; tested to solubility limits (FIG. 9)): > 50% |
| OB(O)c1ccc2ccccc2c1 [Compound 4] | > 99.8 | > 99.8 | > 99.8 | 32.7 | > 99.8 |  | > 100 | > 100 | > 1000 |  |  |  |  |  |
| OB(O)c1ccc(OCc2ccccc2F)c(Cl)c1 [Compound 5, 3-Chloro-4(2′-fluorobenzyloxy) phenylboronic acid] | 90.3 | 88.5 | 62.4 | 4.8 | 79.4 | 92.7 | 77.8 | > 100 | > 100 | No synergism was observed | low toxicity |  |  |  |
| OB(O)c1ccccc1 [PBA, phenylboronic acid, reference compound] |  |  |  |  |  |  |  |  | > 10000 |  |  |  |  |  |
